pEC50, pIC50: −log10 of the molar value.
Columns and labels:
VCaP cells = assay: VCaP growth inhibition assay; assay type: cell-based; settings: 30 pM R1881, 9 days, CTG
Summary of the method: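 Growth read by CTG luminescence after 9-day exposure to compound (final 100 nM–10 fM, 1:5 steps) plus 30 pM R1881, in phenol red-free DMEM with 5% CSS. Cells pre-incubated 72 h before dosing; IC50 by nonlinear 4-parameter regression.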

AR / CBP ternary complex = assay: Ternary complex formation assay (sandwich ELISA, AR capture / CBP detection) in VCaP cell lysates; assay type: cell-based; settings: 1.5 hours treatment, sandwich ELISA (AR capture, CBP or p300 detection)
Summary of the method: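 Anti-AR (AR 441)-coated plates capture AR from lysates of VCaP cells grown ≥3 days at 50K/well in 5% charcoal-stripped FBS, dosed with bifunctional for 1.5 h and lysed 30 min at 4 °C. Co-captured CBP/p300 is probed with rabbit mAb and HRP anti-rabbit, then QuantaRed fluorescence (570/585) is read at 0, 5 and 15 min.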

SMILES	pIC50 (VCaP cells)	pEC50 (AR / CBP ternary complex)
COc1cc(OC2C(C)(C)C(NC(=O)c3ccc(N4CC5(CCC(N6CCC(n7nc(N8CCCc9cc(C#N)c(C)cc98)c8c7CCN(C(C)=O)C8)CC6)CC5)C4)cc3)C2(C)C)ccc1C#N (stereo not drawn) [Compound 455, 4-[7-[4-[5-acetyl-3-(6-cyano-7-methyl-3,4-dihydro-2H-quinolin-1-yl)-6,7-dihydro-4H-pyrazolo[4,3-c]pyridin-1-yl]-1-piperidyl]-2-azaspiro[3.5]nonan-2-yl]-N-[3-(4-cyano-3-methoxy-phenoxy)-2,2,4,4-tetramethyl-cyclobutyl]benzamide]	9.00 to 10.00	> 9.00
CC(=O)N1CCc2c(c(N3CCCc4ccccc43)nn2C2CCN(CC3CCN(c4ncc(C(=O)NC5C(C)(C)C(Oc6ccc(C#N)c(Cl)c6)C5(C)C)cn4)CC3)CC2)C1 (stereo not drawn) [Compound 158, 2-[4-[[4-[5-acetyl-3-(3,4-dihydro-2H-quinolin-1-yl)-6,7-dihydro-4H-pyrazolo[4,3-c]pyridin-1-yl]-1-piperidyl]methyl]-1-piperidyl]-N-[3-(3-chloro-4-cyano-phenoxy)-2,2,4,4-tetramethyl-cyclobutyl]pyrimidine-5-carboxamide]	≥ 10.00	8.00 to 9.00
COc1cc(OC2C(C)(C)C(NC(=O)c3ccc(N4CCC(CN5CCC(n6nc(N7CCCc8cc(-c9cnn(C)c9)c(C(F)F)cc87)c7c6CCN(C(C)=O)C7)CC5)C(OC)C4)cc3)C2(C)C)ccc1C#N (stereo not drawn) [Compound 332, 4-[4-[[4-[5-acetyl-3-[7-(difluoromethyl)-6-(1-methylpyrazol-4-yl)-3,4-dihydro-2H-quinolin-1-yl]-6,7-dihydro-4H-pyrazolo[4,3-c]pyridin-1-yl]-1-piperidyl]methyl]-3-methoxy-1-piperidyl]-N-[3-(4-cyano-3-methoxy-phenoxy)-2,2,4,4-tetramethyl-cyclobutyl]benzamide]	≥ 10.00	> 9.00
CC(=O)N1CCc2c(c(Nc3ccc(-c4cnn(C)c4)cc3F)nn2C2CN(C3CCN(c4ncc(C(=O)NC5C(C)(C)C(Oc6ccc(C#N)c(Cl)c6)C5(C)C)cn4)CC3)C2)C1 (stereo not drawn) [Compound 5, 2-[4-[3-[5-acetyl-3-[2-fluoro-4-(1-methylpyrazol-4-yl)anilino]-6,7-dihydro-4H-pyrazolo[4,3-c]pyridin-1-yl]azetidin-1-yl]-1-piperidyl]-N-[3-(3-chloro-4-cyano-phenoxy)-2,2,4,4-tetramethyl-cyclobutyl]pyrimidine-5-carboxamide]	< 7.00	< 7.00
CC(=O)N1CCc2c(c(N3CCCc4cc(-c5cnn(C)c5)c(C(F)F)cc43)nn2C2CCN(C3CCC4(CC3)CC(Oc3ncc(C(=O)NC5C(C)(C)C(Oc6ccc(C#N)c(Cl)c6)C5(C)C)cn3)C4)CC2)C1 (stereo not drawn) [Compound 383, 2-[7-[4-[5-acetyl-3-[7-(difluoromethyl)-6-(1-methylpyrazol-4-yl)-3,4-dihydro-2H-quinolin-1-yl]-6,7-dihydro-4H-pyrazolo[4,3-c]pyridin-1-yl]-1-piperidyl]spiro[3.5]nonan-2-yl]oxy-N-[3-(3-chloro-4-cyano-phenoxy)-2,2,4,4-tetramethyl-cyclobutyl]pyrimidine-5-carboxamide]	9.00 to 10.00	> 9.00
CC(=O)N1CCc2c(c(N3CCCc4cc(-c5cnn(C)c5)c(C(F)F)cc43)nn2CCOC2CCN(c3ncc(C(=O)NC4C(C)(C)C(Oc5ccc(C#N)c(Cl)c5)C4(C)C)cn3)CC2)C1 (stereo not drawn) [Compound 51, 2-[4-[2-[5-acetyl-3-[7-(difluoromethyl)-6-(1-methylpyrazol-4-yl)-3,4-dihydro-2H-quinolin-1-yl]-6,7-dihydro-4H-pyrazolo[4,3-c]pyridin-1-yl]ethoxy]-1-piperidyl]-N-[3-(3-chloro-4-cyano-phenoxy)-2,2,4,4-tetramethyl-cyclobutyl]pyrimidine-5-carboxamide]	9.00 to 10.00	> 9.00
CC(=O)N1CCc2c(c(N3CCCc4cc(-c5cnn(C)c5)c(C(F)F)cc43)nn2C2CCN([C@@H]3CCN(c4ncc(C(=O)NC5C(C)(C)C(Oc6ccc(C#N)c(Cl)c6)C5(C)C)cn4)C3)CC2)C1 (stereo partly drawn) [Compound 335, 2-[(3R)-3-[4-[5-acetyl-3-[7-(difluoromethyl)-6-(1-methylpyrazol-4-yl)-3,4-dihydro-2H-quinolin-1-yl]-6,7-dihydro-4H-pyrazolo[4,3-c]pyridin-1-yl]-1-piperidyl]pyrrolidin-1-yl]-N-[3-(3-chloro-4-cyano-phenoxy)-2,2,4,4-tetramethyl-cyclobutyl]pyrimidine-5-carboxamide]	9.00 to 10.00	> 9.00
CC(=O)N1CCc2c(c(N3CCCc4cc(-c5cnn(C)c5)c(C(F)F)cc43)nn2C2CCN(C(C)CC3CCN(c4ncc(C(=O)NC5C(C)(C)C(Oc6ccc(C#N)c(Cl)c6)C5(C)C)cn4)CC3)CC2)C1 (stereo not drawn) [Compound 171, 2-[4-[2-[4-[5-acetyl-3-[7-(difluoromethyl)-6-(1-methylpyrazol-4-yl)-3,4-dihydro-2H-quinolin-1-yl]-6,7-dihydro-4H-pyrazolo[4,3-c]pyridin-1-yl]-1-piperidyl]propyl]-1-piperidyl]-N-[3-(3-chloro-4-cyano-phenoxy)-2,2,4,4-tetramethyl-cyclobutyl]pyrimidine-5-carboxamide]	≥ 10.00	> 9.00
Cn1c(=O)n(C)c2cc(-c3cccc4cc(-c5ccc(CCC6CCN(c7ncc(C(=O)NC8C(C)(C)C(Oc9ccc(C#N)c(Cl)c9)C8(C)C)cn7)CC6)nc5)ncc34)ccc21 (stereo not drawn) [Compound 232, N-[3-(3-chloro-4-cyano-phenoxy)-2,2,4,4-tetramethyl-cyclobutyl]-2-[4-[2-[5-[8-(1,3-dimethyl-2-oxo-benzimidazol-5-yl)-3-isoquinolyl]-2-pyridyl]ethyl]-1-piperidyl]pyrimidine-5-carboxamide]	< 7.00	7.00 to 8.00
COc1cc(OC2C(C)(C)C(NC(=O)c3ccc(N4CC5(CCN(C6CCC(n7nc(N8CCCc9cc(-c%10cnn(C)c%10)c(C(F)F)cc98)c8c7CCN(C(C)=O)C8)CC6)CC5)C4)cc3)C2(C)C)ccc1C#N (stereo not drawn) [Compound 288, 4-[7-[4-[5-acetyl-3-[7-(difluoromethyl)-6-(1-methylpyrazol-4-yl)-3,4-dihydro-2H-quinolin-1-yl]-6,7-dihydro-4H-pyrazolo[4,3-c]pyridin-1-yl]cyclohexyl]-2,7-diazaspiro[3.5]nonan-2-yl]-N-[3-(4-cyano-3-methoxy-phenoxy)-2,2,4,4-tetramethyl-cyclobutyl]benzamide]	≥ 10.00	> 9.00
CC(=O)N1CCc2c(c(-c3cccc4cc(-c5ccc(CCC6CC7(C6)CN(c6ncc(C(=O)NC8C(C)(C)C(Oc9ccc(C#N)c(Cl)c9)C8(C)C)cn6)C7)nc5)ncc34)nn2C2CCOCC2)C1 (stereo not drawn) [Compound 227, 2-[6-[2-[5-[8-(5-acetyl-1-tetrahydropyran-4-yl-6,7-dihydro-4H-pyrazolo[4,3-c]pyridin-3-yl)-3-isoquinolyl]-2-pyridyl]ethyl]-2-azaspiro[3.3]heptan-2-yl]-N-[3-(3-chloro-4-cyano-phenoxy)-2,2,4,4-tetramethyl-cyclobutyl]pyrimidine-5-carboxamide]	≥ 10.00	> 9.00
CC(=O)N1CCc2c(c(N3CCCc4cc(-c5cnn(C)c5)c(C)cc43)nn2C2CCN(C3CCC4(CC3)CN(c3ncc(C(=O)NC5C(C)(C)C(Oc6ccc(C#N)c(C)c6)C5(C)C)cn3)C4)CC2)C1 (stereo not drawn) [Compound 471, 2-[7-[4-[5-acetyl-3-[7-methyl-6-(1-methylpyrazol-4-yl)-3,4-dihydro-2H-quinolin-1-yl]-6,7-dihydro-4H-pyrazolo[4,3-c]pyridin-1-yl]-1-piperidyl]-2-azaspiro[3.5]nonan-2-yl]-N-[3-(4-cyano-3-methyl-phenoxy)-2,2,4,4-tetramethyl-cyclobutyl]pyrimidine-5-carboxamide]	9.00 to 10.00	> 9.00
CC(=O)N1CCc2c(c(N3CCCc4cc(-c5cnn(C)c5)c(C(F)F)cc43)nn2C2CN(C3CCN(c4ncc(C(=O)NC5C(C)(C)C(Oc6ccc(C#N)c(Cl)c6)C5(C)C)cn4)CC3)C2)C1 (stereo not drawn) [Compound 11, 2-[4-[3-[5-acetyl-3-[7-(difluoromethyl)-6-(1-methylpyrazol-4-yl)-3,4-dihydro-2H-quinolin-1-yl]-6,7-dihydro-4H-pyrazolo[4,3-c]pyridin-1-yl]azetidin-1-yl]-1-piperidyl]-N-[3-(3-chloro-4-cyano-phenoxy)-2,2,4,4-tetramethyl-cyclobutyl]pyrimidine-5-carboxamide]	9.00 to 10.00	7.00 to 8.00
CC(=O)N1CCc2c(c(N3CCCc4cc(-c5cnn(C)c5)c(C)cc43)nn2C2CCN(C(=O)C3CCN(c4ncc(C(=O)NC5C(C)(C)C(Oc6ccc(C#N)c(Cl)c6)C5(C)C)cn4)CC3)CC2)C1 (stereo not drawn) [Compound 120, 2-[4-[4-[5-acetyl-3-[7-methyl-6-(1-methylpyrazol-4-yl)-3,4-dihydro-2H-quinolin-1-yl]-6,7-dihydro-4H-pyrazolo[4,3-c]pyridin-1-yl]piperidine-1-carbonyl]-1-piperidyl]-N-[3-(3-chloro-4-cyano-phenoxy)-2,2,4,4-tetramethyl-cyclobutyl]pyrimidine-5-carboxamide]	≥ 10.00	> 9.00
CC(=O)N1CCc2c(c(-c3cccc4cc(-c5ccc(CC6CC7(C6)CN(c6ncc(C(=O)NC8C(C)(C)C(Oc9ccc(C#N)c(Cl)c9)C8(C)C)cn6)C7)nc5)ncc34)nn2C)C1 (stereo not drawn) [Compound 230, 2-[6-[[5-[8-(5-acetyl-1-methyl-6,7-dihydro-4H-pyrazolo[4,3-c]pyridin-3-yl)-3-isoquinolyl]-2-pyridyl]methyl]-2-azaspiro[3.3]heptan-2-yl]-N-[3-(3-chloro-4-cyano-phenoxy)-2,2,4,4-tetramethyl-cyclobutyl]pyrimidine-5-carboxamide]	9.00 to 10.00	7.00 to 8.00
